The values below come from PMC4832832 (Archiv Der Pharmazie, 2015).

Series [1] relates to Coxsackie virus B4. Type of series: cell-based. The following applies: for EC50: read-out: EC50 Coxsackie virus B4, reduce virus-induced cytopathogenicity by 50%. On the technique in general: Cytopathic effects are the visible damage that an infection or toxin causes in cultured cells.
For series [2], the system named is Vesicular stomatitis virus. It is filed as cell-based. As to conditions: for EC50: read-out: EC50 Vesicular stomatitis virus.
Series [3] deals with Punta Toro virus. Briefly: microbe, parasite or virus in culture. Type of series: cell-based.
The test system of series [4] is HeLa cells. The following applies: HeLa cell cultures.
In series [5] the test system is Coxsackie virus B4. Type of series: cell-based. As to conditions: Vero cell cultures.
Series [6] relates to Vero cells. As to conditions: Vero cell cultures.
The subject of series [7] is Sindbis virus. In words: microbe, parasite or virus in culture. It is filed as cell-based.
Series [8] relates to Respiratory syncytial virus. Type of series: cell-based. As to conditions: for inhibitory activity against respiratory syncytial virus (in words): HeLa cells.
Series [9] has as its system Parainfluenza‐3 virus. In words: organism not typed. It is filed as cell-based.
For series [10], the system named is Reovirus‐1. Briefly: organism not typed. It is filed as cell-based.
Series [11] deals with Varicella-zoster virus (VZV) TK+(Oka strain). It is filed as cell-based. As to conditions: for activity against TK+ VZV strain (in words): HEL cells; for activity against varicella‐zoster virus (in words): strain not given.
The test system of series [12] is Varicella-zoster virus (VZV) TK-(Oka strain). Type of series: cell-based. The following applies: HEL cells.
Setting [13] is: HeLa cell cultures, unit of the DS-10.000 line.
Setting [14] is: Vero cell cultures, unit of the DS-10.000 line.
Setting [15] is: microscopically detectable alteration of normal cell morphology.

Entries after “also recorded” stand apart in the source; their conditions may differ. Like-named read-outs stand apart in the source and are kept apart here.

Take “dextran sulfate [DS‐10.000, reference compound]”: the “EC50 Coxsackie virus B4” value in series [1] (setting [13]) and in series [5] (unit of the DS-10.000 line) was greater than 100 µg/mL each time. In addition, the “EC50 Vesicular stomatitis virus” value in series [2] worked out at 12 µg/mL. In addition, the “EC50 Punta Toro virus” value in [3] (setting [14]) is 8.9 µg/mL. Besides, the Minimum cytotoxic concentration in series [4] (unit of the DS-10.000 line) and in series [6] (unit of the DS-10.000 line) was greater than 100 µg/mL each time. For the same compound, in series [7] (setting [14]), the “EC50 Sindbis virus” value came out at 8.9 µg/mL. Further, the “EC50 Respiratory syncytial virus” value in [8] (setting [13]) is 1.3 ± 0.7 µg/mL. Further, in series [9] (setting [14]), the “EC50 Parainfluenza‐3 virus” value was greater than 100 µg/mL. The “EC50 Reovirus‐1” value in series [10] (setting [14]) is greater than 100 µg/mL.

Take “Diethyl [(4‐(1‐(2,3,5‐tri‐O‐benzoyl‐β‐D‐ribofuranos‐1‐yl)‐1,2,3‐triazol‐4‐yl)phenyl)(2‐bromophenylamino)methyl]phosphonate [Compound 4c]”: the EC50 in series [1] (HeLa cell cultures) and in series [2] was greater than 100 µM each time. This compound also showed a Minimum cytotoxic concentration in [4] (setting [15]) greater than 100 µM. In addition, the “inhibitory activity against respiratory syncytial virus (in words)” value in series [8] was “slight inhibition; also recorded: modest inhibitory activity”.

On to “Diethyl [(4‐(1‐(β‐D‐ribofuranos‐1‐yl)‐1,2,3‐triazol‐4‐yl)phenyl)(2‐bromophenylamino)methyl]phosphonate [Compound 5c]”, for which, in series [11], the “activity against TK+ VZV strain (in words)” value was “weak activity” and the “activity against varicella‐zoster virus (in words)” value was “modest activity”. For the same compound, the “activity against TK− VZV strain (in words)” value in [12] is “weak activity”.

On to “Diethyl [(4‐(1‐(β‐D‐ribofuranos‐1‐yl)‐1,2,3‐triazol‐4‐yl)phenyl)(2‐naphthalenylamino)methyl]phosphonate [Compound 5g]”, for which, in [11], the “activity against TK+ VZV strain (in words)” value is “weak activity” and the “activity against varicella‐zoster virus (in words)” value is “modest activity”. For the same compound, in series [12], the “activity against TK− VZV strain (in words)” value is given as “weak activity”.

“Diethyl [(4‐(1‐(2,3,5‐tri‐O‐benzoyl‐β‐D‐ribofuranos‐1‐yl)‐1,2,3‐triazol‐4‐yl)phenyl)(2‐chlorophenylamino)methyl]phosphonate [Compound 4b]”: the EC50 in [1] (HeLa cell cultures) and in series [2] was greater than 100 µM throughout. For the same compound, the Minimum cytotoxic concentration in [4] (setting [15]) was greater than 100 µM. Besides, the “inhibitory activity against respiratory syncytial virus (in words)” value in series [8] is reported as “slight inhibition; also recorded: modest inhibitory activity”.

As for `NC(=O)c1ncn([C@@H]2O[C@H](CO)[C@@H](O)[C@H]2O)n1` [Ribavirin, ribavirin], the EC50 is 112 µM in [3] (Punta Toro virus, Vero, read-out: EC50 Punta Toro virus); greater than 250 µM in [7] (Sindbis virus, Vero, read-out: EC50 Sindbis virus); 85 µM in series [9] (Vero, read-out: EC50 Parainfluenza‐3 virus); greater than 250 µM in [10] (Vero, read-out: EC50 Reovirus‐1). For the same compound, the Minimum cytotoxic concentration in [4] (setting [15]) and in [6] (setting [15]) was greater than 250 µM throughout.

For the compound “Diethyl [(4‐(1‐(2,3,5‐tri‐O‐benzoyl‐β‐D‐ribofuranos‐1‐yl)‐1,2,3‐triazol‐4‐yl)phenyl)(4‐bromophenylamino)methyl]phosphonate [Compound 4d]”, the EC50 in series [1] (HeLa cell cultures) and in series [2] was greater than 100 µM each time. In series [4] (setting [15]), the Minimum cytotoxic concentration is greater than 100 µM.

Take “Diethyl [(4‐(1‐(2,3,5‐tri‐O‐benzoyl‐β‐D‐ribofuranos‐1‐yl)‐1,2,3‐triazol‐4‐yl)phenyl)(benzylamino)methyl]phosphonate [Compound 4h]”: the figures for the “activity against Coxsackie virus B4 (in words)” value in series [1] (HeLa cells) and in series [5] were “no activity” and “some activity; also recorded: modest inhibitory activity”, respectively. In series [5] (read-out: EC50 Coxsackie virus B4, reduce virus-induced cytopathogenicity by 50%), the EC50 stood at 20 µM. In [6] (setting [15]), the Minimum cytotoxic concentration was greater than 100 µM.

For the compound “Diethyl [(4‐(1‐(β‐D‐ribofuranos‐1‐yl)‐1,2,3‐triazol‐4‐yl)phenyl)(4‐chloro‐2‐methylphenylamino)methyl]phosphonate [Compound 5f]”, in series [11], the “activity against TK+ VZV strain (in words)” value is recorded as “weak activity” and the “activity against varicella‐zoster virus (in words)” value is on record as “modest activity”. Further, the “activity against TK− VZV strain (in words)” value in series [12] is on record as “weak activity”.

In general, EC50 refers to the concentration at which the effect is half-maximal.
